Test results as given in patent US8969376B2, “Pyrazolopyrimidine compounds and their use as PDE10 inhibitors” (Mitsubishi Tanabe Pharma Corporation, priority 2010, dated 2015).

Legend:
Human PDE10A (hPDE10A) = Human PDE10A (hPDE10A) (Homo sapiens (Human), UniProt Q9Y233); assay: Measurement of PDE10 inhibitory activity (PDE assay, radiolabeled nucleotide method), human enzyme; format: biochemical; details: PDE10A of human (PDE10A2 expressed in COS-7 cells); substrate 3H-cAMP, final 7 nM; room temperature 90 min
Excerpt: (§1) (1) Bovine PDE10A (bPDE10A) was isolated and prepared from bovine corpus striatum, according to the methods described in the reference Fujishige et al., Eur. J. Biochem., vol. 266, pp. 1118-1127, 1999. Human PDE10A (hPDE10A) was isolated from COS-7 cells transfected with plasmids coding for human PDE10A2, according to the methods described in the reference Kotera et al., Biochem. Biophys. Res. Commun., vol. 261, pp. 551-557, 1999. The enzyme solutions obtained were used for a PDE assay.
(§2) The PDE assay was performed according to a modified method referred to a report of Kotera et al. (Kotera et al., Biochem. Pharmacol., vol. 60, pp. 1333-1341, 2000), by the radiolabeled nucleotide method.
(§3) Specifically, the measurements of the inhibitory activities were carried out in the following method.
(Method) The test compounds were dissolved in dimethyl sulfoxide (DMSO). 2 μL of the compound solution was added to 96 well plate, and the reaction mixture (20 μL of PDE enzyme solution in 50 mM Tris-HCl, pH 8.0, 40 μL of the assay buffer (50 mM Tris-HCl, pH 8.0, 2 mM MgCl2, 0.07% 2-mercaptoethanol, and 0.825 mg/mL bovine serum albumin), and 20 μL of 1 mg/mL snake venom in 50 mM Tris-HCl, pH8.0) was added to the 96 well plate. The enzyme reaction was started by adding and mixing with substrate solution of 20 μL containing approximate 35 nM ^3H-cAMP in 50 mM Tris-HCl, pH 8.0. The final concentration of cAMP in the reaction mixtures was 7 nM. The reaction mixtures were incubated at room temperature for 90 min. After incubation, the reaction was stopped by adding 100 μL of methanol and resultant solutions were applied to filter plate containing Dowex (1×8 200-400) and centrifuged. 50 μL of the eluate together with wash eluate with additional 100 μL methanol was collected in another plate and the radioactivity was measured.
(2) The compounds in the Examples below were tested for PDE inhibition using the Method described above.

Bovine PDE10A (bPDE10A) = Bovine PDE10A (bPDE10A) (Bos taurus, UniProt A0A3Q1MHJ4); assay: Measurement of PDE10 inhibitory activity (PDE assay, radiolabeled nucleotide method), bovine enzyme; format: biochemical; details: PDE10A of bovine (corpus striatum); substrate 3H-cAMP, final 7 nM; room temperature 90 min
Excerpt: as §1, §2, §3
(Method) The test compounds were dissolved in dimethyl sulfoxide (DMSO). 2 μL of the compound solution was added to 96 well plate, and the reaction mixture (20 μL of PDE enzyme solution in 50 mM Tris-HCl, pH 8.0, 40 μL of the assay buffer (50 mM Tris-HCl, pH 8.0, 2 mM MgCl2, 0.07% 2-mercaptoethanol, and 0.825 mg/mL bovine serum albumin), and 20 μL of 1 mg/mL snake venom in 50 mM Tris-HCl, pH8.0) was added to the 96 well plate. […] 50 μL of the eluate together with wash eluate with additional 100 μL methanol was collected in another plate and the radioactivity was measured. […]

Chain of Human PDE10A (hPDE10A) (Q9Y233 267-1055): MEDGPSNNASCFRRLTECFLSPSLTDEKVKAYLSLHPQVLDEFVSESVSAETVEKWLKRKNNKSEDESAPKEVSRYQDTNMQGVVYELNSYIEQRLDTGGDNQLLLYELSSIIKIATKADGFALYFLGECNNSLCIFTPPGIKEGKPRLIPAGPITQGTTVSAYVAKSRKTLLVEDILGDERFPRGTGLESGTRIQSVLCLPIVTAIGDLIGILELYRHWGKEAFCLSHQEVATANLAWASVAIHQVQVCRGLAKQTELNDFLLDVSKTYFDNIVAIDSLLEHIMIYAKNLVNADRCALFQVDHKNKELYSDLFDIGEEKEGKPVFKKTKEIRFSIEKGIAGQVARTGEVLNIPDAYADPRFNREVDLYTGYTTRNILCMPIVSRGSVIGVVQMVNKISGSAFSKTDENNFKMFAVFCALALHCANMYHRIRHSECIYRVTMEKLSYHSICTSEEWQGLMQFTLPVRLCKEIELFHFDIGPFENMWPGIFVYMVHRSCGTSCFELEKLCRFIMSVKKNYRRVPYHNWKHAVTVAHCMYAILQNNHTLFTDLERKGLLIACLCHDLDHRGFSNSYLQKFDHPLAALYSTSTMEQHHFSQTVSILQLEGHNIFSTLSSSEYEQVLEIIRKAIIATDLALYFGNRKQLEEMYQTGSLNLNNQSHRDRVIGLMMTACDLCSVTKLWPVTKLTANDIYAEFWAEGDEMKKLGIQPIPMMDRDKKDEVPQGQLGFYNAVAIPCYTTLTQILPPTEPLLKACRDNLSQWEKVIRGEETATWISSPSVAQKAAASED
Chain of Bovine PDE10A (bPDE10A) (A0A3Q1MHJ4 1-1068): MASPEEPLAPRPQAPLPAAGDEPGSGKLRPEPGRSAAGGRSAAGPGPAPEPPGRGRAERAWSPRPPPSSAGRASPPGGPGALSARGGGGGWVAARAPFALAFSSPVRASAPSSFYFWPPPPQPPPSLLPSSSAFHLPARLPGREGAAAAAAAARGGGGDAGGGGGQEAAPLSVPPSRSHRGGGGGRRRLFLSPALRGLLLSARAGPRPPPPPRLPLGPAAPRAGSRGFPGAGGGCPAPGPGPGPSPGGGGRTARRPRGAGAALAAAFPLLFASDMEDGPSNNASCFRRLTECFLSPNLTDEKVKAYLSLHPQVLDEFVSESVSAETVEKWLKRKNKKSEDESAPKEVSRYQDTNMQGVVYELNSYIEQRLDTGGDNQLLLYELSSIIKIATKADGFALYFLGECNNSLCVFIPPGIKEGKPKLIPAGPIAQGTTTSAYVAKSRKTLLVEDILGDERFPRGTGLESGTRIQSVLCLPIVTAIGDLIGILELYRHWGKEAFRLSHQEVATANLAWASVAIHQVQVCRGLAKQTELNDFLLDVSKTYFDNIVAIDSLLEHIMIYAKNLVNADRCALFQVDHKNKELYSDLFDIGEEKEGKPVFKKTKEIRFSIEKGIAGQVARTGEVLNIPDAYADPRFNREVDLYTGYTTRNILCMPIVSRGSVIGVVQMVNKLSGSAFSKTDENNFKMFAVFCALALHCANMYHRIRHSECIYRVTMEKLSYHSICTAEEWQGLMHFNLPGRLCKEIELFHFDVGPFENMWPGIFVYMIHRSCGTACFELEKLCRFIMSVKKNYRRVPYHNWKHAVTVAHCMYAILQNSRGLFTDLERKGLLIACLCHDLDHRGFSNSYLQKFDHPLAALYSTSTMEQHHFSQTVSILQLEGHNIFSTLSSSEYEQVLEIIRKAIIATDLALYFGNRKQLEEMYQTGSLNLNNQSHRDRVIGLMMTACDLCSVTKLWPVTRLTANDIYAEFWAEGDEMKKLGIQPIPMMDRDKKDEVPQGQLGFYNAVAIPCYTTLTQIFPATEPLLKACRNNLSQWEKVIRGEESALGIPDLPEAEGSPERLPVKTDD

SMILES | IC50 (Human PDE10A (hPDE10A)) | IC50 (Bovine PDE10A (bPDE10A))
CCCc1cnc(C)c(-c2cc3nc(N4CCCC4)cc(N(C)C4CCOCC4)n3n2)n1 [Example 1.181, N-methyl-2-(3-methyl-6-propylpyrazin-2-yl)-5-pyrrolidin-1-yl-N-(tetrahydro-2H-pyran-4-yl)pyrazolo[1,5-a]pyrimidin-7-amine] | 0.64 nM | 
Cc1nc(C)c(-c2cc3nc(N4CCCC4)cc(NCC(C)(C)O)n3n2)nc1CC(C)C [Example 1.187, 1-{[2-(6-isobutyl-3,5-dimethylpyrazin-2-yl)-5-pyrrolidin-1-ylpyrazolo[1,5-a]pyrimidin-7-yl]amino}-2-methylpropan-2-ol] | 0.6 nM | 
Cc1nc2ccc(F)cc2nc1-c1cc2nc(N3CC[C@H](F)C3)cc(N[C@H]3CC[C@@](C)(O)CC3)n2n1 [Example 1.175, cis-4-({2-(7-fluoro-3-methylquinoxalin-2-yl)-5-[(3R)-3-fluoropyrrolidin-1-yl]pyrazolo[1,5-a]pyrimidin-7-yl}amino)-1-methylcyclohexanol] | 0.12 nM | 
Cc1nc2c(nc1-c1cc3nc(N4CCCC4)cc(NC4CCOCC4)n3n1)CCCO2 [Example 1.197, 2-(3-methyl-7,8-dihydro-6H-pyrano[2,3-b]pyrazin-2-yl)-5-pyrrolidin-1-yl-N-(tetrahydro-2H-pyran-4-yl)pyrazolo[1,5-a]pyrimidin-7-amine] | 2.5 nM | 
CO[C@H]1CC[C@H](Nc2cc(N3CCCC3)nc3cc(-c4nc5c(nc4C)OCCC5)nn23)CC1 [Example 1.199, N-(trans-4-methoxycyclohexyl)-2-(3-methyl-7,8-dihydro-6H-pyrano[2,3-b]pyrazin-2-yl)-5-pyrrolidin-1-ylpyrazolo[1,5-a]pyrimidin-7-amine] | 0.89 nM | 
Cc1nc2c(nc1-c1cc3nc(N4CCCC4)cc(N[C@H]4CC[C@](C)(O)CC4)n3n1)CCCO2 [Example 1.173, trans-1-methyl-4-{[2-(3-methyl-7,8-dihydro-6H-pyrano[2,3-b]pyrazin-2-yl)-5-pyrrolidin-1-ylpyrazolo[1,5-a]pyrimidin-7-yl]amino}cyclohexanol] | 0.27 nM | 
Cc1nc(C)c(C2CC2)nc1-c1cc2nc(N3CCCC3)cc(NCC(C)(C)O)n2n1 [Example 1.189, 1-{[2-(6-cyclopropyl-3,5-dimethylpyrazin-2-yl)-5-pyrrolidin-1-ylpyrazolo[1,5-a]pyrimidin-7-yl]amino}-2-methylpropan-2-ol] | 0.18 nM | 
Cc1cn2nccc2nc1-c1cc2nc(N3CCCC3)cc(NCC(C)(C)O)n2n1 [Example 1.184, 2-methyl-1-[(6′-methyl-5-pyrrolidin-1-yl-2,5′-bipyrazolo[1,5-a]pyrimidin-7-yl)amino]propan-2-ol] | 2.5 nM | 
Cc1nc2c(nc1-c1cc3nc(N4CCCC4)cc(NCC(C)(C)O)n3n1)CCCO2 [Example 1.198, 2-methyl-1-{[2-(3-methyl-7,8-dihydro-6H-pyrano[2,3-b]pyrazin-2-yl)-5-pyrrolidin-1-ylpyrazolo[1,5-a]pyrimidin-7-yl]amino}propan-2-ol] | 0.82 nM | 
Cc1nc2cnccc2nc1-c1cc2nc(N3CCCC3)cc(NC3CCOCC3)n2n1 [Example 5.002, 2-(3-methylpyrido[3,4-b]pyrazin-2-yl)-5-pyrrolidin-1-yl-N-(tetrahydro-2H-pyran-4-yl)pyrazolo[1,5-a]pyrimidin-7-amine] | 0.28 nM | 
COCCN(CCOC)c1cc(N2CCCC2)nc2cc(-c3nc4cc(C)ccc4nc3C)nn12 [Example 1.050, 2-(3,7-dimethylquinoxalin-2-yl)-N,N-bis(2-methoxyethyl)-5-pyrrolidin-1-ylpyrazolo[1,5-a]pyrimidin-7-amine] |  | 0.019 nM
Cc1nc2ccncc2nc1-c1cc2nc(N3CCCC3)cc(NC3CCOCC3)n2n1 [Example 5.001, 2-(2-methylpyrido[3,4-b]pyrazin-3-yl)-5-pyrrodin-1-yl-N-(tetrahydro-2H-pyran-4-yl)pyrazolo[1,5-a]pyrimidin-7-amine] | 0.15 nM | 
Cc1nc(C)c(C2CC2)nc1-c1cc2nc(N3CCCC3)cc(NC3CCOCC3)n2n1 [Example 1.190, 2-(6-cyclopropyl-3,5-dimethylpyrazin-2-yl)-5-pyrrolidin-1-yl-N-(tetrahydro-2H-pyran-4-yl)pyrazolo[1,5-a]pyrimidin-7-amine] | 0.69 nM | 
